Reference: US8877748B2, “Heterocyclic fused anthraquinone derivatives, manufacturing method and pharmaceutical composition using thereof” (National Defense Medical Center, priority 2012, dated 2014)

Legend:
BT-549 = assay: NCI one-dose screening, breast cancer BT-549; type: cell-based, human; details: 10 μM
786-O = assay: NCI one-dose screening, renal cancer 786-O; type: cell-based, human; details: 10 μM
NCI-H522 = assay: NCI one-dose screening, non-small cell lung cancer NCI-H522; type: cell-based, human; details: 10 μM
ACHN = assay: NCI one-dose screening, renal cancer ACHN; type: cell-based, human; details: 10 μM
OVCAR-5 = assay: NCI one-dose screening, ovarian cancer OVCAR-5; type: cell-based, human; details: 10 μM
UO-31 = assay: NCI one-dose screening, renal cancer UO-31; type: cell-based, human; details: 10 μM
UACC-257 = assay: NCI one-dose screening, melanoma UACC-257; type: cell-based, human; details: 10 μM
TK-10 = assay: NCI one-dose screening, renal cancer TK-10; type: cell-based, human; details: 10 μM
SF-539 = assay: NCI one-dose screening, CNS cancer SF-539; type: cell-based, human; details: 10 μM
MDA-MB-468 = assay: NCI one-dose screening, breast cancer MDA-MB-468; type: cell-based, human; details: 10 μM
UACC-62 = assay: NCI one-dose screening, melanoma UACC-62; type: cell-based, human; details: 10 μM
SK-OV-3 = assay: NCI one-dose screening, ovarian cancer SK-OV-3; type: cell-based, human; details: 10 μM
RXF, 393 = assay: NCI one-dose screening, renal cancer RXF, 393; type: cell-based, human; details: 10 μM
OVCAR-8 = assay: NCI one-dose screening, ovarian cancer OVCAR-8; type: cell-based, human; details: 10 μM
T-47D = assay: NCI one-dose screening, breast cancer T-47D; type: cell-based, human; details: 10 μM
M14 = assay: NCI one-dose screening, melanoma M14; type: cell-based, human; details: 10 μM
A549/ATCC = assay: NCI one-dose screening, non-small cell lung cancer A549/ATCC; type: cell-based, human; details: 10 μM
HCC-2998 = assay: NCI one-dose screening, colon cancer HCC-2998; type: cell-based, human; details: 10 μM
SK-MEL-28 = assay: NCI one-dose screening, melanoma SK-MEL-28; type: cell-based, human; details: 10 μM
NCI-H226 = assay: NCI one-dose screening, non-small cell lung cancer NCI-H226; type: cell-based, human; details: 10 μM
NCl/ADR-RES = assay: NCI one-dose screening, breast cancer NCl/ADR-RES; type: cell-based, human; details: 10 μM; listed under Ovarian cancer
SK-MEL-5 = assay: NCI one-dose screening, melanoma SK-MEL-5; type: cell-based, human; details: 10 μM
MDA, -MB-435 = assay: NCI one-dose screening, breast cancer MDA, -MB-435; type: cell-based, human; details: 10 μM; listed under Melanoma
[1] = system: PC-3 prostate cancer cell line; assay: SRB assay cell viability, PC-3 prostate cancer cell line; type: cell-based, human; details: Homo sapiens, PC-3 prostate cancer cell line, Table II prints no unit, μM printed, read-out: SRB assay: 50% inhibition of cancer cell proliferation of sample concentration (IC50) of PC-3 prostate cancer cell line
SNB-75 = assay: NCI one-dose screening, CNS cancer SNB-75; type: cell-based, human; details: 10 μM
MCF7 = assay: NCI one-dose screening, breast cancer MCF7; type: cell-based, human; details: 10 μM
COLO 205 = assay: NCI one-dose screening, colon cancer COLO 205; type: cell-based, human; details: 10 μM
MALME-3M = assay: NCI one-dose screening, melanoma MALME-3M; type: cell-based, human; details: 10 μM
EKVX = assay: NCI one-dose screening, non-small cell lung cancer EKVX; type: cell-based, human; details: 10 μM
HOP-62 = assay: NCI one-dose screening, non-small cell lung cancer HOP-62; type: cell-based, human; details: 10 μM
SNB-19 = assay: NCI one-dose screening, CNS cancer SNB-19; type: cell-based, human; details: 10 μM
HCT-116 = assay: NCI one-dose screening, colon cancer HCT-116; type: cell-based, human; details: 10 μM
SN12C = assay: NCI one-dose screening, renal cancer SN12C; type: cell-based, human; details: 10 μM
human tumor cell lines = assay: NCI one-dose screening, Mean / Delta / Range of growth percent over all tested cell lines; type: cell-based; details: 10 μM
SK-MEL-2 = assay: NCI one-dose screening, melanoma SK-MEL-2; type: cell-based, human; details: 10 μM
HCT-15 = assay: NCI one-dose screening, colon cancer HCT-15; type: cell-based, human; details: 10 μM
MDA-MB-231/ATCC = assay: NCI one-dose screening, breast cancer MDA-MB-231/ATCC; type: cell-based, human; details: 10 μM
CAKI-1 = assay: NCI one-dose screening, renal cancer CAKI-1; type: cell-based, human; details: 10 μM
IGROV1 = assay: NCI one-dose screening, ovarian cancer IGROV1; type: cell-based, human; details: 10 μM
U251 = assay: NCI one-dose screening, CNS cancer U251; type: cell-based, human; details: 10 μM
NCI-H23 = assay: NCI one-dose screening, non-small cell lung cancer NCI-H23; type: cell-based, human; details: 10 μM
LOX IMVI = assay: NCI one-dose screening, melanoma LOX IMVI; type: cell-based, human; details: 10 μM
HT29 = assay: NCI one-dose screening, colon cancer HT29; type: cell-based, human; details: 10 μM

IC50 [1]: > 15 µM
SMILES: CCOc1cccc(Sc2cc3c(c4nsnc24)C(=O)c2ccccc2C3=O)c1 [C50, 4-(3-ethoxy-phenylthio)anthra[2,1-c] [1,2,5]thiadiazol-6,11-dione]
Growth Percent BT-549 (BT-549): 103.88%
Growth Percent 786-0 (786-O): 100.25%
Growth Percent NCI-H522 (NCI-H522): 98.19%
Growth Percent ACHN (ACHN): 103.33%
Growth Percent OVCAR-5 (OVCAR-5): 116.60%
Growth Percent UO-31 (UO-31): 76.69%
Growth Percent UACC-257 (UACC-257): 126.28%
Growth Percent TK-10 (TK-10): 125.26%
Growth Percent SF-539 (SF-539): 93.72%
Growth Percent MDA-MB-468 (MDA-MB-468): 108.00%
Growth Percent UACC-62 (UACC-62): 108.85%
Growth Percent SK-OV-3 (SK-OV-3): 99.36%
Growth Percent RXF 393 (RXF, 393): 118.35%
Growth Percent OVCAR-8 (OVCAR-8): 112.41%
Growth Percent T-47D (T-47D): 86.51%
Growth Percent M14 (M14): 103.80%
Growth Percent A549/ATCC (A549/ATCC): 111.48%
Growth Percent HCC-2998 (HCC-2998): 105.49%
Growth Percent SK-MEL-28 (SK-MEL-28): 112.20%
Growth Percent NCI-H226 (NCI-H226): 90.47%
Growth Percent NCI/ADR-RES (NCl/ADR-RES): 101.92%
Growth Percent SK-MEL-5 (SK-MEL-5): 106.82%
Growth Percent MDA-MB-435 (MDA, -MB-435): 106.07%
Growth Percent SNB-75 (SNB-75): 77.25%
Growth Percent MCF7 (MCF7): 78.81%
Growth Percent COLO 205 (COLO 205): 106.49%
Growth Percent MALME-3M (MALME-3M): 108.70%
Growth Percent EKVX (EKVX): 102.26%
Growth Percent HOP-62 (HOP-62): 91.94%
Growth Percent SNB-19 (SNB-19): 103.22%
Growth Percent HCT-116 (HCT-116): 100.93%
Growth Percent SN12C (SN12C): 104.76%
Growth Percent Delta (human tumor cell lines; delta over all cell lines): 25.00%
Growth Percent Mean (human tumor cell lines; mean over all cell lines): 101.69%
Growth Percent Range (human tumor cell lines; range over all cell lines): 49.59%
Growth Percent SK-MEL-2 (SK-MEL-2): 102.98%
Growth Percent HCT-15 (HCT-15): 103.08%
Growth Percent MDA-MB-231/ATCC (MDA-MB-231/ATCC): 100.81%
Growth Percent CAKI-1 (CAKI-1): 84.23%
Growth Percent IGROV1 (IGROV1): 94.67%
Growth Percent U251 (U251): 109.69%
Growth Percent NCI-H23 (NCI-H23): 94.07%
Growth Percent LOX IMVI (LOX IMVI): 84.11%
Growth Percent HT29 (HT29): 106.40%
